Source: PubChem BioAssay AID2060903 (Molecular Pharmacology Branch, DTP, NCI, 2025)

Test system: 377384-186-R-J1-PDC complex spheroid viability
Assay: Anticancer human tumor 377384-186-R-J1-PDC patient-derived pancreatic carcinoma cell line growth inhibition [RAS]
Settings: for IC50: curve of first compound; for viability, T/C: stronger effect = lower value
Summary of the method: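 Tumour cells grown as complex spheroids with HUVEC endothelial cells and mesenchymal stem cells, treated with RAS pathway inhibitor combinations. Each agent spans half-log steps from near clinical Cmax, or 10 microM where Cmax is unknown.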
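Note: spheroids exposed to compounds for seven days before readout.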

## CC1(C)CCC(Nc2ncc(C(F)(F)F)c(-c3c[nH]c4c(P(C)(C)=O)c(C#N)ccc34)n2)CN1 (centres undefined) + CCn1c(-c2cccnc2C(C)OC)c2c3cc(ccc31)N1CCOC(CC(NC(=O)C(C(C)C)N(C)C(=O)C3(F)CCN(C(=O)C#CC(C)(C)N(C)C)CC3)C(=O)N3CCCC(N3)C(=O)OCC(C)(C)C2)C1
Second compound 0.000949 µM
  IC50: 6.49 nM
Second compound 0.003 µM
  IC50: 6.94 nM
Second compound 0.00949 µM
  IC50: 6.25 nM
Second compound 0.03 µM
  IC50: 6.09 nM
Second compound 0.0949 µM
  IC50: 4.39 nM
Second compound 0.3 µM
  IC50: 4.25 nM
Second compound 0.000949 µM, first compound 0.000949 µM
  viability, T/C: 96%
Second compound 0.000949 µM, first compound 0.003 µM
  viability, T/C: 75.9%
Second compound 0.000949 µM, first compound 0.00949 µM
  viability, T/C: 36.1%
Second compound 0.000949 µM, first compound 0.03 µM
  viability, T/C: 30.8%
Second compound 0.000949 µM, first compound 0.0949 µM
  viability, T/C: 22.1%
Second compound 0.000949 µM, first compound 0.3 µM
  viability, T/C: 22.8%
Second compound 0.003 µM, first compound 0.000949 µM
  viability, T/C: 92.7%
Second compound 0.003 µM, first compound 0.003 µM
  viability, T/C: 82.8%
Second compound 0.003 µM, first compound 0.00949 µM
  viability, T/C: 37.5%
Second compound 0.003 µM, first compound 0.03 µM
  viability, T/C: 25.2%
Second compound 0.003 µM, first compound 0.0949 µM
  viability, T/C: 22.9%
Second compound 0.003 µM, first compound 0.3 µM
  viability, T/C: 20.3%
Second compound 0.00949 µM, first compound 0.000949 µM
  viability, T/C: 96.6%
Second compound 0.00949 µM, first compound 0.003 µM
  viability, T/C: 71.8%
Second compound 0.00949 µM, first compound 0.00949 µM
  viability, T/C: 37.8%
Second compound 0.00949 µM, first compound 0.03 µM
  viability, T/C: 23.5%
Second compound 0.00949 µM, first compound 0.0949 µM
  viability, T/C: 21.9%
Second compound 0.00949 µM, first compound 0.3 µM
  viability, T/C: 20.6%
Second compound 0.03 µM, first compound 0.000949 µM
  viability, T/C: 85.2%
Second compound 0.03 µM, first compound 0.003 µM
  viability, T/C: 73.4%
Second compound 0.03 µM, first compound 0.00949 µM
  viability, T/C: 35.3%
Second compound 0.03 µM, first compound 0.03 µM
  viability, T/C: 19.5%
Second compound 0.03 µM, first compound 0.0949 µM
  viability, T/C: 19.3%
Second compound 0.03 µM, first compound 0.3 µM
  viability, T/C: 16.3%
Second compound 0.0949 µM, first compound 0.000949 µM
  viability, T/C: 88.5%
Second compound 0.0949 µM, first compound 0.003 µM
  viability, T/C: 61.7%
Second compound 0.0949 µM, first compound 0.00949 µM
  viability, T/C: 26.1%
Second compound 0.0949 µM, first compound 0.03 µM
  viability, T/C: 19.4%
Second compound 0.0949 µM, first compound 0.0949 µM
  viability, T/C: 16.6%
Second compound 0.0949 µM, first compound 0.3 µM
  viability, T/C: 14.8%
Second compound 0.3 µM, first compound 0.000949 µM
  viability, T/C: 85.2%
Second compound 0.3 µM, first compound 0.003 µM
  viability, T/C: 61.6%
Second compound 0.3 µM, first compound 0.00949 µM
  viability, T/C: 23%
Second compound 0.3 µM, first compound 0.03 µM
  viability, T/C: 18.1%
Second compound 0.3 µM, first compound 0.0949 µM
  viability, T/C: 15.7%
Second compound 0.3 µM, first compound 0.3 µM
  viability, T/C: 13.4%

## CCC(CC)c1cc(NC2CCC(N)C2)n2nccc2n1 (centres undefined) + CCn1c(-c2cccnc2C(C)OC)c2c3cc(ccc31)N1CCOC(CC(NC(=O)C(C(C)C)N(C)C(=O)C3(F)CCN(C(=O)C#CC(C)(C)N(C)C)CC3)C(=O)N3CCCC(N3)C(=O)OCC(C)(C)C2)C1
Second compound 0.000949 µM
  IC50: 1720 nM
Second compound 0.003 µM
  IC50: 1580 nM
Second compound 0.00949 µM
  IC50: 1600 nM
Second compound 0.03 µM
  IC50: 1540 nM
Second compound 0.0949 µM
  IC50: 1230 nM
Second compound 0.3 µM
  IC50: 851 nM
Second compound 0.000949 µM, first compound 0.0316 µM
  viability, T/C: 101%
Second compound 0.000949 µM, first compound 0.1 µM
  viability, T/C: 96.9%
Second compound 0.000949 µM, first compound 0.316 µM
  viability, T/C: 115%
Second compound 0.000949 µM, first compound 1 µM
  viability, T/C: 91.9%
Second compound 0.000949 µM, first compound 3.16 µM
  viability, T/C: 2.57%
Second compound 0.000949 µM, first compound 10 µM
  viability, T/C: 3.88%
Second compound 0.003 µM, first compound 0.0316 µM
  viability, T/C: 109%
Second compound 0.003 µM, first compound 0.1 µM
  viability, T/C: 115%
Second compound 0.003 µM, first compound 0.316 µM
  viability, T/C: 108%
Second compound 0.003 µM, first compound 1 µM
  viability, T/C: 81%
Second compound 0.003 µM, first compound 3.16 µM
  viability, T/C: 2.93%
Second compound 0.003 µM, first compound 10 µM
  viability, T/C: 3.96%
Second compound 0.00949 µM, first compound 0.0316 µM
  viability, T/C: 90.4%
Second compound 0.00949 µM, first compound 0.1 µM
  viability, T/C: 114%
Second compound 0.00949 µM, first compound 0.316 µM
  viability, T/C: 120%
Second compound 0.00949 µM, first compound 1 µM
  viability, T/C: 82.3%
Second compound 0.00949 µM, first compound 3.16 µM
  viability, T/C: 3.02%
Second compound 0.00949 µM, first compound 10 µM
  viability, T/C: 4.29%
Second compound 0.03 µM, first compound 0.0316 µM
  viability, T/C: 104%
Second compound 0.03 µM, first compound 0.1 µM
  viability, T/C: 99%
Second compound 0.03 µM, first compound 0.316 µM
  viability, T/C: 107%
Second compound 0.03 µM, first compound 1 µM
  viability, T/C: 77.6%
Second compound 0.03 µM, first compound 3.16 µM
  viability, T/C: 3.09%
Second compound 0.03 µM, first compound 10 µM
  viability, T/C: 4.72%
Second compound 0.0949 µM, first compound 0.0316 µM
  viability, T/C: 90.8%
Second compound 0.0949 µM, first compound 0.1 µM
  viability, T/C: 91.5%
Second compound 0.0949 µM, first compound 0.316 µM
  viability, T/C: 95.8%
Second compound 0.0949 µM, first compound 1 µM
  viability, T/C: 60.1%
Second compound 0.0949 µM, first compound 3.16 µM
  viability, T/C: 3.31%
Second compound 0.0949 µM, first compound 10 µM
  viability, T/C: 4.2%
Second compound 0.3 µM, first compound 0.0316 µM
  viability, T/C: 94%
Second compound 0.3 µM, first compound 0.1 µM
  viability, T/C: 86.1%
Second compound 0.3 µM, first compound 0.316 µM
  viability, T/C: 86.3%
Second compound 0.3 µM, first compound 1 µM
  viability, T/C: 44.2%
Second compound 0.3 µM, first compound 3.16 µM
  viability, T/C: 3.73%
Second compound 0.3 µM, first compound 10 µM
  viability, T/C: 3.93%
